Laboratory results published in patent US20200031778A1, “NOVEL 5-SUBSTITUTED IMIDAZOLYLMETHYL DERIVATIVES” (Bayer CropScience Aktiengesellschaft, priority 2016, published 2020).

Assays:
[1] = Log P by HPLC on reversed phase columns (EEC directive 79/831 Annex V.A8; methods [a], [b], [c]); type: physicochemical; settings: reversed phase HPLC column; method [a]: LC-UV, acidic range, 0.1% formic acid in water and acetonitrile as eluent (linear gradient from 10% to 95% acetonitrile)
Outline: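 Log P derived from retention times, interpolated linearly between bracketing straight-chain alkan-2-ones (3–16 carbons) of known Log P. Eluents ran acetonitrile 10% to 95% against water with 0.1% formic acid ([a], acidic), 0.001 M ammonium acetate ([b], neutral) or 0.1% phosphoric acid ([c], acidic); UV read-out.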

[2] = tested on: Puccinia recondita; experiment: Example IX-A: in vivo preventive test on Puccinia recondita (brown rust on wheat); settings: 264 h, compounds of formula IX, 500 ppm of active ingredient, wheat plants, preventive spray, evaluated 11 days after inoculation, read-out: efficacy
Outline: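 Young wheat plants sprayed with compound in DMSO/acetone/Tween 80 diluted in water, inoculated 24 h later with spore suspension. Incubated 24 h at 20 °C, 100% RH, then 10 days at 20 °C, 70-80% RH. Efficacy scored 11 days post-inoculation, 0% equal to solvent-treated controls, 100% no disease.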

[3] = tested on: Septoria tritici; experiment: Example IX-B: in vivo preventive test on Septoria tritici (leaf spot on wheat); settings: Zymoseptoria tritici, 576 h; compounds of formula IX; 500 ppm of active ingredient; wheat plants, preventive spray; evaluated 24 days after inoculation; read-out: efficacy
Outline: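 Wheat seedlings sprayed preventively with compound dissolved in DMSO/acetone/Tween 80 and diluted in water; solvent-only controls. Spore suspension of S. tritici sprayed 24 h later; 72 h at 18 °C/100% RH, then 21 days at 20 °C/90% RH. Efficacy scored 24 days post-inoculation, 0% = control, 100% = no disease.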

[4] = tested on: Sphaerotheca fuliginea; experiment: Example IX-C: in vivo preventive test on Sphaerotheca fuliginea (powdery mildew on cucurbits); settings: Podosphaera fuliginea, 360 h; compounds of formula IX; 500 ppm of active ingredient; gherkin plants, preventive spray; evaluated 15 days after inoculation; read-out: efficacy
Outline: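 Young gherkin plants sprayed with compound in DMSO/acetone/Tween 80 diluted in water, then inoculated 24 h later with Sphaerotheca fuliginea spores. Kept 72 h at 18 °C/100% RH, then 12 days at 20 °C/70-80% RH; efficacy scored 15 days post-inoculation, 0% = control, 100% = no disease.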

[5] = tested on: Uromyces appendiculatus; experiment: Example IX-D: in vivo preventive test on Uromyces appendiculatus (bean rust); settings: 264 h, compounds of formula IX, 500 ppm of active ingredient, bean plants, preventive spray, evaluated 11 days after inoculation, read-out: efficacy
Procedure: Example IX-D: In Vivo Preventive Test on Uromyces Appendiculatus (Bean Rust)
The active ingredients are made soluble and homogenized in a mixture of Dimethyl sulfoxide/Acetone/Tween® 80 and then diluted in water to the desired concentration.
The young plants of bean are treated by spraying the active ingredient prepared as described above. Control plants are treated only with an aqueous solution of Acetone/Dimethyl sulfoxide/Tween® 80.
After 24 hours, the plants are contaminated by spraying the leaves with an aqueous suspension of Uromyces appendiculatus spores. The contaminated bean plants are incubated for 24 hours at 20° C. and at 100% relative humidity and then for 10 days at 20° C. and at 70-80% relative humidity.
The test is evaluated 11 days after the inoculation. 0% means an efficacy which corresponds to that of the control plants while an efficacy of 100% means that no disease is observed.
control plants while an efficacy of 100% means that no disease was observed.

Row | SMILES | chromatographic logP [1] | pest or weed control at 500 ppm [2] | pest or weed control at 500 ppm [3] | pest or weed control at 500 ppm [4] | pest or weed control at 500 ppm [5]
1 | N#Cc1cncn1CC(=O)c1ccc(Oc2ccc(Cl)cc2)cc1Cl [IX-31] | 3.46 | 90 to 100% | 90 to 100% | 90 to 100% | 90 to 100%
2 | O=C(Cn1cncc1F)c1cnc(Oc2ccc(Cl)cc2)cc1Cl [IX-94] | 2.32 | 80 to 89% | 90 to 100% | 90 to 100% | 90 to 100%
3 | N#Cc1cncn1CC(=O)c1cnc(Oc2ccc(OC(F)(F)F)cc2)cc1C(F)(F)F [IX-112] | 3.64 | 80 to 89% | 80 to 89% | 90 to 100% | 90 to 100%
4 | O=C(Cn1cncc1Cl)c1ccc(Oc2ccc(I)cc2)cc1F [IX-47] | 3.19 | 90 to 100% | 90 to 100% | 90 to 100% | 90 to 100%
5 | O=C(Cn1cncc1F)c1ccc(Oc2ccc(Cl)cc2)cc1Cl [IX-65] | 2.52 | 90 to 100% | 90 to 100% | 90 to 100% | 90 to 100%
6 | O=C(Cn1cncc1Cl)c1ccc(Oc2ccc(Cl)cc2)cc1Br [IX-34] | 3.15 | 80 to 89% | 90 to 100% | 90 to 100% | 90 to 100%
7 | O=C(Cn1cncc1Br)c1ccc(Oc2ccc(OC(F)(F)F)cc2)cc1Br [IX-06] | 3.53 | 80 to 89% | 90 to 100% | 90 to 100% | 70 to 79%
8 | N#Cc1cncn1CC(=O)c1ccc(Oc2ccc(Cl)cc2)cc1F [IX-64] | 3.27 | 90 to 100% | 90 to 100% | 90 to 100% | 90 to 100%
9 | Cc1ccc(Oc2ccc(C(=O)Cn3cncc3Cl)c(Cl)c2)cc1 [IX-07] | 3.09 | 90 to 100% | 90 to 100% | 90 to 100% | 90 to 100%
10 | N#Cc1cncn1CC(=O)c1ccc(Oc2ccc(Cl)cc2)cc1C(F)F [IX-75] | 3.39 | 90 to 100% | 90 to 100% | 90 to 100% | 90 to 100%
11 | O=C(Cn1cncc1Cl)c1ccc(Oc2ccc(C(F)(F)F)cc2)cc1Cl [IX-14] | 3.33 | 90 to 100% | 90 to 100% | 90 to 100% | 90 to 100%
12 | N#Cc1cncn1CC(=O)c1ccc(Oc2ccc(Cl)cc2)nc1C(F)(F)F [IX-107] | 3.33 | 90 to 100% | 90 to 100% | 90 to 100% | 80 to 89%
13 | O=C(Cn1cncc1Br)c1ccc(Oc2ccc(I)cc2)cc1Br [IX-42] | 3.55 | 80 to 89% | 90 to 100% | 90 to 100% | 90 to 100%
14 | O=C(Cn1cncc1Cl)c1ccc(Oc2ccc(I)cc2)cc1Cl [IX-13] | 3.41 | 90 to 100% | 90 to 100% | 90 to 100% | 90 to 100%
15 | O=C(Cn1cncc1Cl)c1ccc(Oc2ccc(Br)nc2)cc1Cl [IX-78] | 2.32 | 80 to 89% | 90 to 100% | 90 to 100% | 90 to 100%
16 | O=C(Cn1cncc1F)c1cnc(Oc2ccc(Br)cc2)cc1C(F)(F)F [IX-82, 1-[6-(4-bromophenoxy)-4-(trifluoromethyl)-3-pyridyl]-2-(5-fluoroimidazol-1-yl)ethanone] | 2.73 | 70 to 79% | 90 to 100% | 90 to 100% | 90 to 100%

Row | SMILES | chromatographic logP [1] | pest or weed control at 500 ppm [2] | pest or weed control at 500 ppm [3] | pest or weed control at 500 ppm [4] | pest or weed control at 500 ppm [5]
17 | N#Cc1cncn1CC(=O)c1ccc(Oc2ccc(Cl)cc2)cc1C(F)(F)F [IX-54] | 3.55 | 90 to 100% | 90 to 100% | 90 to 100% | 70 to 79%
18 | O=C(Cn1cncc1Cl)c1ccc(Oc2ccc(OC(F)(F)F)cc2)cc1Cl [IX-09] | 3.37 | 90 to 100% | 90 to 100% | 90 to 100% | 90 to 100%
19 | O=C(Cn1cncc1F)c1cnc(Oc2ccc(OC(F)(F)F)cc2)cc1C(F)(F)F [IX-108] | 2.89 | 80 to 89% | 90 to 100% | 90 to 100% | 90 to 100%
20 | O=C(Cn1cncc1Cl)c1ccc(Oc2ccc(Br)cc2)cc1C(F)(F)F [IX-29] | 3.37 | 90 to 100% | 90 to 100% | 80 to 89% | 80 to 89%
21 | O=C(Cn1cncc1F)c1cnc(Oc2ccc(Cl)cc2F)cc1C(F)(F)F [IX-95] | 2.84 | 70 to 79% | 70 to 79% | 90 to 100% | 90 to 100%
22 | O=C(Cn1cncc1F)c1ccc(Oc2ccc(Cl)cc2)nc1F [IX-88] | 2.14 | 70 to 79% | 90 to 100% | 90 to 100% | 80 to 89%
23 | N#Cc1cncn1CC(=O)c1cnc(Oc2ccc(Cl)cc2)cc1Cl [IX-91] | 3 | 90 to 100% | 90 to 100% | 90 to 100% | 90 to 100%
24 | O=C(Cn1cncc1Br)c1ccc(Oc2ccc(Cl)cc2)cc1Br [IX-33] | 3.13 | 90 to 100% | 90 to 100% | 90 to 100% | 90 to 100%
25 | O=C(Cn1cncc1Br)c1ccc(Oc2ccc(Br)cc2)cc1Br [IX-36] | 3.16 | 80 to 89% | 90 to 100% | 90 to 100% | 90 to 100%
26 | O=C(Cn1cncc1F)c1cnc(Oc2ccc(C(F)(F)F)cc2)cc1Br [IX-111] | 2.64 | 80 to 89% | 90 to 100% | 90 to 100% | 90 to 100%
27 | O=C(Cn1cncc1Cl)c1ccc(Oc2ccc(Cl)cc2)cc1C(F)(F)F [IX-30] | 3.37 | 70 to 79% | 90 to 100% | 80 to 89% | 90 to 100%
28 | O=C(Cn1cncc1Br)c1ccc(Oc2ccc(Cl)cc2)cc1Cl [IX-18] | 3.07 | 90 to 100% | 90 to 100% | 90 to 100% | 90 to 100%
29 | O=C(Cn1cncc1F)c1cnc(Oc2ccc(C(F)(F)F)cc2)cc1Cl [IX-110] | 2.56 | 90 to 100% | 90 to 100% | 90 to 100% | 90 to 100%
30 | N#Cc1cncn1CC(=O)c1ccc(Oc2ccc(Br)cc2)cc1Br [IX-67] | 3.62 | 90 to 100% | 90 to 100% | 90 to 100% | 90 to 100%
31 | O=C(Cn1cncc1Cl)c1ccc(Oc2ccc(Cl)cc2)cc1Cl [IX-04] | 3.17 | 90 to 100% | 90 to 100% | 90 to 100% | 90 to 100%
